In US20220152188A1, “TLR4-TLR7 LIGAND FORMULATIONS AS VACCINE ADJUVANTS” (The Regents of the University of California, priority 2019, published 2022):

Columns and labels:
Assay type in all cases: cell-based
Conditions in all cases: Compound 1 = 100
IP-10 = assay: IP-10, mouse (Tables 1-3)
IL-6 = assay: IL-6, mouse (Tables 1-3)
TLR4 [1] = biological target: TLR4 (Homo sapiens, UniProt O00206+Q9Y6Y9); assay: TLR4, human (Tables 1-3)
TLR4 [2] = biological target: T1, TLR4 (Mus musculus, UniProt Q9JHF9+Q9QUK6); assay: TLR4, mouse (Tables 1-3)
T1 sequence (Q9QUK6 26-835): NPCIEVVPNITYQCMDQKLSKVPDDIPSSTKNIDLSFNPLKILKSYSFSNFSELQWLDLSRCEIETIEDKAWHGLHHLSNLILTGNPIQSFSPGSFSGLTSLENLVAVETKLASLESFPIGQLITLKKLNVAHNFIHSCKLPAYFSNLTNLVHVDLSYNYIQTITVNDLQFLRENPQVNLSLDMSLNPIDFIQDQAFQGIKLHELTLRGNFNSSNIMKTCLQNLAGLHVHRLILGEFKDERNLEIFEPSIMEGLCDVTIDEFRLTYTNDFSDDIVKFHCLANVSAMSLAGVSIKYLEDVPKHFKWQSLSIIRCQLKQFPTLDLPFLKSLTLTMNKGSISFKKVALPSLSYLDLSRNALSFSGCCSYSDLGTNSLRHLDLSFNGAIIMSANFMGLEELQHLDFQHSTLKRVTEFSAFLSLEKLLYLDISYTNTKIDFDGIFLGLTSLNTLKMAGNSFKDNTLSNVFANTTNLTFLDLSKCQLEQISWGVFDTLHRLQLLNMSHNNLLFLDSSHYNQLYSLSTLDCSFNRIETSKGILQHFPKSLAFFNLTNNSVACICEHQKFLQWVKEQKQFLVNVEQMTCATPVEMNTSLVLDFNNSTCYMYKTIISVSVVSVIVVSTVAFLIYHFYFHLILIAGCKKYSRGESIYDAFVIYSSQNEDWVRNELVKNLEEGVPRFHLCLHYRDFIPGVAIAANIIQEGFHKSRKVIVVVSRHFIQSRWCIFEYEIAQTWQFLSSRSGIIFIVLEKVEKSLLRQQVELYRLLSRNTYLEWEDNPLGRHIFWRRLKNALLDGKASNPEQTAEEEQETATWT
T1 sequence (Q9JHF9 19-160): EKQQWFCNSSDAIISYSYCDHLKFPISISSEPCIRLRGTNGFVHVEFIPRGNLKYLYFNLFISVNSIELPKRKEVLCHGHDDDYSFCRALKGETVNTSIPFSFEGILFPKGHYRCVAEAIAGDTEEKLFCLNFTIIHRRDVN

IL-8 = assay: IL-8, human (Tables 1-3)
[3] = Table 1, R^3 series, footnotes not given
Further: test concentration or dose not given here.

Sequence of TLR4 (Homo sapiens, UniProt O00206+Q9Y6Y9) (O00206 24-839): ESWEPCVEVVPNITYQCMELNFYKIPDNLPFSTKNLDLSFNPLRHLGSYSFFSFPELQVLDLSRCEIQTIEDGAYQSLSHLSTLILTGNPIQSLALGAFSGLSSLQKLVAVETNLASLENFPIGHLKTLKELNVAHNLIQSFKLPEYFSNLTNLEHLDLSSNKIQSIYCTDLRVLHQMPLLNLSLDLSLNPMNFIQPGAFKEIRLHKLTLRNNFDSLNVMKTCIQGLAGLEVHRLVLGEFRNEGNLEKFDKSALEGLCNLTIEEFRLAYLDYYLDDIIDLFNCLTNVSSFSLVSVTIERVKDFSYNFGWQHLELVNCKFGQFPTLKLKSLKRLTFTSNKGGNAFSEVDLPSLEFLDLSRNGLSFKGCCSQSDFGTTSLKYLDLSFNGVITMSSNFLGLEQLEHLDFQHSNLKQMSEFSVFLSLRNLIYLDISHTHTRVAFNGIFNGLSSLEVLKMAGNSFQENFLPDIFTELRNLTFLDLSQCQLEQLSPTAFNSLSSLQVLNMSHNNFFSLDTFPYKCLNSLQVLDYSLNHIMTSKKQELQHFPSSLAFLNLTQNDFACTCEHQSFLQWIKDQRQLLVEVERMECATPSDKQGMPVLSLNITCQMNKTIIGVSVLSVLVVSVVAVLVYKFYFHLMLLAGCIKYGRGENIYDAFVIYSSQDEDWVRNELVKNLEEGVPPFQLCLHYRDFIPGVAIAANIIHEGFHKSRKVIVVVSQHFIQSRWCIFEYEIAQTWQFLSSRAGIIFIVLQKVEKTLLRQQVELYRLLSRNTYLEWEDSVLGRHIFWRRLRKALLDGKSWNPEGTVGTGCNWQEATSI
Sequence of TLR4 (Homo sapiens, UniProt O00206+Q9Y6Y9) (Q9Y6Y9 17-160 limits assumed): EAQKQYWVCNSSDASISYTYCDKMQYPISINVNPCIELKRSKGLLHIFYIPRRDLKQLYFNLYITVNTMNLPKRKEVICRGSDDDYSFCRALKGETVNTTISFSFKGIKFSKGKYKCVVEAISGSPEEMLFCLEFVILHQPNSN

SMILES | mouse IP-10 (IP-10; Table 2, R^2 series) | mouse IL-6 (IL-6; Table 2, R^2 series) | human TLR4 (TLR4 [1]; Table 2, R^2 series) | mouse TLR4 (TLR4 [2]; Table 2, R^2 series) | human IL-8 (IL-8; Table 2, R^2 series) | mouse IP-10 (IP-10; Table 1, R^3 series) | mouse IL-6 (IL-6; [3]) | human TLR4 (TLR4 [1]; Table 1, R^3 series) | mouse TLR4 (TLR4 [2]; Table 1, R^3 series) | human IL-8 (IL-8; Table 1, R^3 series) | mouse IP-10 (IP-10; Table 3, R^1 series) | mouse IL-6 (IL-6; Table 3, R^1 series) | human TLR4 (TLR4 [1]; Table 3, R^1 series) | mouse TLR4 (TLR4 [2]; Table 3, R^1 series) | human IL-8 (IL-8; Table 3, R^1 series)
CCNC(=O)CSc1nc2c([nH]c3ccccc32)c(=O)n1-c1ccccc1 [Compound 22] | <1 | <1 | 8 | <1 | 4 |  |  |  |  |  |  |  |  |  | 
CCCCCn1c2ccccc2c2nc(SCC(=O)NC3CCCCC3)n(-c3ccccc3)c(=O)c21 [Compound 49] |  |  |  |  |  | <1 | 5 | 11 | 6 | 1 |  |  |  |  | 
O=C(CSc1nc2c([nH]c3ccccc32)c(=O)n1-c1ccccc1)NC1CCCC1 [Compound 11] | 52 | 53 | 23 | 28 | 5 |  |  |  |  |  |  |  |  |  | 
CCCCCCCCCCCCn1c2ccccc2c2nc(SCC(=O)NC3CCCCC3)n(-c3ccccc3)c(=O)c21 [Compound 50] |  |  |  |  |  | <1 | <1 | 10 | 4 | <1 |  |  |  |  | 
CCCCCCNC(=O)CSc1nc2c([nH]c3ccccc32)c(=O)n1-c1ccccc1 [Compound 25] | <1 | <1 | 8 | 4 | 7 |  |  |  |  |  |  |  |  |  | 
CC(C)CCNC(=O)CSc1nc2c([nH]c3ccccc32)c(=O)n1-c1ccccc1 [Compound 27] | 62 | 61 | 38 | 56 | 53 |  |  |  |  |  |  |  |  |  | 
O=C(CSc1nc2c([nH]c3ccccc32)c(=O)n1-c1ccccc1)NC1CCCCCCC1 [Compound 10] | 98 | 114 | 64 | 95 | 73 |  |  |  |  |  |  |  |  |  | 
Cc1ccc(-n2c(SCC(=O)NC3CCCCC3)nc3c([nH]c4ccccc43)c2=O)cc1 [Compound 38] |  |  |  |  |  |  |  |  |  |  | <1 | <1 | 2 | 2 | 6
O=C(CSc1nc2c([nH]c3ccccc32)c(=O)n1-c1ccccc1)NCC1CCCO1 (centres unmarked) [Compound 33] | 54 | 23 | 13 | 21 | 8 |  |  |  |  |  |  |  |  |  | 
N#CCn1c2ccccc2c2nc(SCC(=O)NC3CCCCC3)n(-c3ccccc3)c(=O)c21 [Compound 51] |  |  |  |  |  | 64 | 98 | 19 | 55 | 30 |  |  |  |  | 
O=C(CSc1nc2c([nH]c3ccccc32)c(=O)n1-c1ccccc1)Nc1nccs1 [Compound 21] | <1 | 1 | 12 | 2 | 5 |  |  |  |  |  |  |  |  |  | 
CC(C)(C)CCNC(=O)CSc1nc2c([nH]c3ccccc32)c(=O)n1-c1ccccc1 [Compound 28] | 85 | 99 | 72 | 126 | 95 |  |  |  |  |  |  |  |  |  | 
O=C(CSc1nc2c([nH]c3ccccc32)c(=O)n1CCc1ccccc1)NC1CCCCC1 [Compound 40] |  |  |  |  |  |  |  |  |  |  | <1 | <1 | 1 | 1 | 5
O=C(CSc1nc2c([nH]c3ccccc32)c(=O)n1-c1ccccc1)Nc1ccccc1F [Compound 15] | 54 | 36 | 71 | 43 | 61 |  |  |  |  |  |  |  |  |  | 
O=C(CSc1nc2c([nH]c3ccccc32)c(=O)n1-c1ccccc1)NCc1ccco1 [Compound 19] | 26 | 18 | 27 | 5 | 15 |  |  |  |  |  |  |  |  |  | 
Cc1cccc(NC(=O)CSc2nc3c([nH]c4ccccc43)c(=O)n2-c2ccccc2)c1 [Compound 17] | 55 | 19 | 116 | 13 | 54 |  |  |  |  |  |  |  |  |  | 

SMILES | mouse IP-10 (IP-10; Table 2, R^2 series) | mouse IL-6 (IL-6; Table 2, R^2 series) | human TLR4 (TLR4 [1]; Table 2, R^2 series) | mouse TLR4 (TLR4 [2]; Table 2, R^2 series) | human IL-8 (IL-8; Table 2, R^2 series) | mouse IP-10 (IP-10; Table 1, R^3 series) | mouse IL-6 (IL-6; [3]) | human TLR4 (TLR4 [1]; Table 1, R^3 series) | mouse TLR4 (TLR4 [2]; Table 1, R^3 series) | human IL-8 (IL-8; Table 1, R^3 series) | mouse IP-10 (IP-10; Table 3, R^1 series) | mouse IL-6 (IL-6; Table 3, R^1 series) | human TLR4 (TLR4 [1]; Table 3, R^1 series) | mouse TLR4 (TLR4 [2]; Table 3, R^1 series) | human IL-8 (IL-8; Table 3, R^1 series)
O=C(CSc1nc2c([nH]c3ccccc32)c(=O)n1C1CCCCC1)NC1CCCCC1 [Compound 36] |  |  |  |  |  |  |  |  |  |  | 61 | 71 | 40 | 56 | 27
CC(C)CNC(=O)CSc1nc2c([nH]c3ccccc32)c(=O)n1-c1ccccc1 [Compound 26] | 53 | 44 | 21 | 24 | 11 |  |  |  |  |  |  |  |  |  | 
O=C(CSc1nc2c([nH]c3ccccc32)c(=O)n1-c1ccccc1)Nc1ccccc1 [Compound 13] | 44 | 11 | 31 | 21 | 15 |  |  |  |  |  |  |  |  |  | 
O=C(CSc1nc2c([nH]c3ccccc32)c(=O)n1-c1ccccc1)NC1CCCCCC1 [Compound 9] | 107 | 126 | 100 | 99 | 118 |  |  |  |  |  |  |  |  |  | 
O=C(CSc1nc2c([nH]c3ccccc32)c(=O)n1-c1ccccc1)Nc1ccc(F)cc1 [Compound 14] | 70 | 103 | 108 | 81 | 107 |  |  |  |  |  |  |  |  |  | 
O=C(CSc1nc2c([nH]c3ccccc32)c(=O)n1-c1ccccc1)Nc1cccc(F)c1 [Compound 16] | 45 | 14 | 39 | 11 | 13 |  |  |  |  |  |  |  |  |  | 
CCC(C)CCNC(=O)CSc1nc2c([nH]c3ccccc32)c(=O)n1-c1ccccc1 (centres unmarked) [Compound 29] | 45 | 30 | 17 | 29 | 23 |  |  |  |  |  |  |  |  |  | 
O=C(CSc1nc2c([nH]c3ccccc32)c(=O)n1-c1ccc(F)cc1)NC1CCCCC1 [Compound 37] |  |  |  |  |  |  |  |  |  |  | 72 | 48 | 51 | 41 | 5
O=C(CSc1nc2c([nH]c3ccccc32)c(=O)n1-c1ccccc1)NC1CCCCC1 [Compound 1] | 100 | 100 | 100 | 100 | 100 | 100 | 100 | 100 | 100 | 100 | 100 | 100 | 100 | 100 | 100
O=C(CSc1nc2c([nH]c3ccccc32)c(=O)n1-c1ccc2ccccc2c1)NC1CCCCC1 [Compound 39] |  |  |  |  |  |  |  |  |  |  | <1 | 3 | 3 | 6 | <1
O=C(CSc1nc2c([nH]c3ccccc32)c(=O)n1-c1ccccc1)Nc1ccc2ccccc2c1 [Compound 18] | <1 | <1 | 21 | 2 | <1 |  |  |  |  |  |  |  |  |  | 
O=C(CSc1nc2c([nH]c3ccccc32)c(=O)n1-c1ccccc1)Nc1ccc2cn[nH]c2c1 [Compound 20] | <1 | 3 | <1 | <1 | 7 |  |  |  |  |  |  |  |  |  | 
CCCC(C)NC(=O)CSc1nc2c([nH]c3ccccc32)c(=O)n1-c1ccccc1 (centres unmarked) [Compound 30] | 55 | 12 | 13 | 17 | 6 |  |  |  |  |  |  |  |  |  | 
CCC(CC)NC(=O)CSc1nc2c([nH]c3ccccc32)c(=O)n1-c1ccccc1 [Compound 31] | 26 | 10 | 11 | 8 | <1 |  |  |  |  |  |  |  |  |  | 
Cn1c2ccccc2c2nc(SCC(=O)NC3CCCCC3)n(-c3ccccc3)c(=O)c21 [Compound 42] |  |  |  |  |  | 99 | 101 | 92 | 100 | 79 |  |  |  |  | 
O=C(CSc1nc2c([nH]c3ccccc32)c(=O)n1-c1ccccc1)NC1CCC1 [Compound 12] | 66 | 35 | 32 | 18 | 19 |  |  |  |  |  |  |  |  |  | 
